Source: BindingDB's records for doi:10.1007/s10822-022-00478-x (Roche Innovation Center Basel, F. Hoffmann-La Roche Ltd., 2022)

Target: cAMP and cAMP-inhibited cGMP 3',5'-cyclic phosphodiesterase 10A (Homo sapiens, UniProt Q9Y233)
Assay: PDE10A assay
Method in brief: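 Scintillation proximity readout of [3H]cGMP hydrolysis (50 nM final substrate, 15 min) by 2 ng/well human PDE10A after 15 min compound preincubation at RT, pH 7.5 with MgCl2. Four-parameter logistic fit gave IC50, reported as pIC50.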

Row | Structure (SMILES) | IC50 [nM]
1 | O=C(Nc1cccc(N2CCC(O)CC2)c1)c1nc(C2CC2)cnc1Nc1cncnc1 [Roche-Dataset for PDE10A, Compound 703] | 13
2 | O=C(Nc1cc(-c2ccccc2)no1)c1ccc2cc(-c3ccccc3)nn2c1 [Roche-Dataset for PDE10A, Compound 752] | 4500
3 | O=C(Nc1ccn2nc(-c3ccccc3)nc2c1)c1cncc(Cl)c1 [Roche-Dataset for PDE10A, Compound 385] | 71
4 | CC(C)(NC(=O)c1nc(C2CC2)cnc1Nc1cncnc1)c1nnc(-c2cccnc2)o1 [Roche-Dataset for PDE10A, Compound 1006] | 1440
5 | O=C(Nc1ccnc(Cl)c1)c1cn(-c2ccc3ccccc3n2)cn1 [Roche-Dataset for PDE10A, Compound 414] | 302
6 | CC(C)Cn1nc(-c2ccccn2)cc1NC(=O)c1nc(C2CC2)ccc1Nc1cncnc1 [US8470820, 28] | 1.24
7 | Cn1ncc(C(=O)NCc2cccc(C(F)(F)F)n2)c1C(=O)Nc1ccn2cc(-c3ccccc3)nc2n1 [Roche-Dataset for PDE10A, Compound 1157] | 4780
8 | Cn1nc(-c2ccccn2)cc1NC(=O)c1c(Nc2cncnc2)cc[nH]c1=O [Roche-Dataset for PDE10A, Compound 711] | 18
9 | COc1ccc(Cn2nc(N3CCCC3)nc2CCc2nc3c(Cl)cc(Cl)c(C)n3n2)cc1 [Roche-Dataset for PDE10A, Compound 97] | 0.64
10 | O=C(Nc1cc(-c2ccccn2)nn1CC1CCCC1)c1nc(C2CC2)ccc1Nc1cncnc1 [US8470820, 31] | 1.12
11 | Cc1ncc(C)n2nc(/C=C/c3nc(N4CCC[C@H]4CF)nn3C)nc12 [Roche-Dataset for PDE10A, Compound 691] | 787
12 | O=C(c1nc(C2CC2)cnc1Nc1cncnc1)N1CCN(CCc2ccccc2)CC1 [Roche-Dataset for PDE10A, Compound 1015] | 10000
13 | Cc1ncc(C)n2nc(CCc3nc(C)n(-c4ccccc4)n3)nc12 [Roche-Dataset for PDE10A, Compound 456] | 748
14 | CS(=O)(=O)c1ccc(CNC(=O)c2nc(C3CC3)cnc2Nc2cncnc2)cc1 [Roche-Dataset for PDE10A, Compound 800] | 554
15 | COCCN(C)C(=O)c1cnn(C)c1C(=O)Nc1ccn2cc(-c3cccc(OCCCF)c3)nc2n1 [Roche-Dataset for PDE10A, Compound 3] | 15
16 | Cc1cncc(-c2nc3cc(NC(=O)c4c(C(=O)N5CCC5)cnn4C)ccn3n2)c1 [Roche-Dataset for PDE10A, Compound 219] | 11
17 | CCOc1ccccc1-c1cn2c(n1)C[C@H](NC(=O)c1c(C(=O)N3CCC3)cnn1C)CC2 [Roche-Dataset for PDE10A, Compound 251] | 2.2
18 | CCN(C)C(=O)c1cnn(C)c1C(=O)Nc1ccn2cc(-c3cccc(O)c3)nc2n1 [Roche-Dataset for PDE10A, Compound 73] | 3.47
19 | CC(C)NC(=O)c1nc(C2CC2)cnc1OCc1nc(-c2ccccc2)cn1C [Roche-Dataset for PDE10A, Compound 252] | 1060
20 | O=C(c1nc(C2CC2)cnc1Nc1cncnc1)N1CCN(C2CCCC2)CC1 [Roche-Dataset for PDE10A, Compound 1039] | 10000
21 | COc1cccc(-c2noc(CCN3C(=O)c4ccccc4C3=O)n2)c1 [Roche-Dataset for PDE10A, Compound 332] | 10000
22 | CSc1nc2cc(NC(=O)c3c(C(=O)N4CCC4)cnn3C)ccc2s1 [Roche-Dataset for PDE10A, Compound 840] | 331
23 | CCN(C)C(=O)c1c(C(=O)Nc2ccn3cc(-c4ccccc4)nc3n2)cnn1C [Roche-Dataset for PDE10A, Compound 144] | 10000
24 | O=C(NCCN1CCOCC1=O)c1nc(C2CC2)cnc1Nc1cncnc1 [Roche-Dataset for PDE10A, Compound 728] | 2560
25 | CN(C)C(=O)Cn1ccc(NC(=O)c2nc(C3CC3)cnc2Nc2cncnc2)n1 [Roche-Dataset for PDE10A, Compound 882] | 32
26 | COc1ccc2c(=O)n(C)c3c(C(C)C)nc(-c4ccccc4Cl)n3c2c1 [Roche-Dataset for PDE10A, Compound 908] | 771
